Test results taken from US20230416330A1, “Optimized GIP Peptide Analogues” (Antag Therapeutics ApS, priority 2019, published 2023).
Read-outs that look alike come from different tables or passages of the source. Starred links: 1 amine or outer side, 2 acyl side, 3 side chain; linkers in the order of their positions; H or OH if unused. Non-standard residues stand in square brackets, D forms with d. Residues, ends and D or L forms follow the SMILES beside them. Groups on a side chain read outwards from the residue. *: point of attachment. C16 diacid = O=C(O)CCCCCCCCCCCCCCC(=O)*; γGlu = O=C(O)[C@H](CCC(=O)[*:2])N[*:1]; Aib = CC(C)(N)C(=O)O

Assays:
[1] = Solubility by visual inspection of peptide solutions; type: physicochemical
How it was run: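 Peptides dissolved at 1, 5, 7.5 or 15 mg/ml in 50 mM sodium phosphate pH 7.4 or water adjusted to pH 7.4 with NaOH, with gentle mixing. Immediate solubility judged visually as a clear, colorless solution.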

[2] = Physical stability: fibril formation in Thioflavin T (ThT) assay with agitation; type: physicochemical; conditions: 25° C., agitation
How it was run: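 Peptides at 1, 5, 7.5 or 15 mg/ml in 50 mM sodium phosphate pH 7.4 or in water adjusted to pH 7.4 with NaOH, filtered 0.22 μm, with ThT added. Wells held a 3 mm silica bead under 300 rpm orbital agitation at 25° C. Emission at 486 nm tracked continuously; lag time = 10% of transition above baseline.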

[3] = molecular target: T1, human GIP receptor (Homo sapiens, UniProt P48546); test: cAMP assay Alternative 2 (Gaddum assay), antagonist potency pKb; type: cell-based
T1 construct: host or cells: HEK-293 cells, transient transfection (Lipofectamine 2000), cDNA in pCMV-Script vector
T1 sequence (P48546 22-466): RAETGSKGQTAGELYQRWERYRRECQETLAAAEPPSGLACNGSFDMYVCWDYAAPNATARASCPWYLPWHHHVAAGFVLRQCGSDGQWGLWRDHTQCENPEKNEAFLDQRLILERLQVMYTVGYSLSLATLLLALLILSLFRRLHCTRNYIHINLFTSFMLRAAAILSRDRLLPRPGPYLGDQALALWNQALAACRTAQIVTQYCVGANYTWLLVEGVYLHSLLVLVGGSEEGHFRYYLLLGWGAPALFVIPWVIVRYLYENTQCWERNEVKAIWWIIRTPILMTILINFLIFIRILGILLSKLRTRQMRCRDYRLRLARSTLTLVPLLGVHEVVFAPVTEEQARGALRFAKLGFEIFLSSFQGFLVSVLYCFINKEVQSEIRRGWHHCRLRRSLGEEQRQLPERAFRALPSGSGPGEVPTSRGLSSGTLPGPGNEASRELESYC
Protocol: HEK293 cells were cultured in 10% CO2 and 37° C. in Dulbecco's modified Eagle's medium supplemented with 10% fetal bovine serum, 2 mM glutamine, 180 units/ml penicillin, and 45 µg/ml streptomycin. Transient transfection with hGIPR for the CisBio assay from Table 2C was performed by using Lipofectamine 2000.
Antagonist potency (pKb) was estimated in a functional setting. The estimated pKb values were calculated from the shifts of the agonist-concentration-response curves in the presence of a single dose of GIP peptide antagonists using the Gaddum equation: pKb=log(DR-1)-log(B), where DR (EC50′/EC50) is the dose ratio calculated from EC50 of GIP1-42 obtained in the presence and absence (EC50) of antagonist, and B is the antagonist concentration used.
The in vitro functional assessment of compounds towards human GIP receptor was determined in HEK-293 cells transiently expressing the receptor. On the day of the assay, cells were resuspended in HBSS buffer (Gibco, 14025-50) supplemented with […] (Gibco, 15630-106), 0.1% Pluronic F-68 (Gibco, 24040-032) and 0.1% casein (Sigma, C4765), and plated in 384-well plates at a density of 3500 cells/well. The GIP peptide analogues of the present disclosure were diluted in HBSS buffer supplemented with 20 mM HEPES, 0.1% pluronic, 0.1% casein and 500 uM IBMX. […] Increasing dose of agonist (GIP1-42) was subsequently added to cells and incubated for additionally 30 min at 37° C. The intracellular cAMP was quantitatively determined using the CisBio cAMP Dynamic 2 HTRF Assay Kit. The assay is based on a competition between native cAMP produced by cells and cAMP labeled with the dye d2 for binding to a cryptate labeled antibody. The specific signal (i.e. energy transfer signal) is inversely proportional to the concentration of cAMP in the sample.
The cAMP-d2 conjugate and the antibody anti-cAMP-Cryptate, both diluted in lysis buffer provided in the kit, were added to the cells according to the manufacturer's protocol. The resulting competitive assay was incubated for 60 minutes at room temperature, and the signal was detected by using a PerkinElmer Envision® instrument with excitation at 320 nm and emission at 665 nm and 620 nm. The HTRF ratio (emission at 665 nm/620 nm*10,000) is inversely proportional to the amount of cAMP present and is converted to nM cAMP per well using a cAMP standard curve.

Row | SMILES | Visual appearance ([1]; 7.5 mg/ml, Na, MilliQ (8)) | Visual appearance ([1]; 15 mg/ml, Na, MilliQ (8)) | Avr lag time (h) ([2]; 7.5 mg/ml, Na, MilliQ (8)) | Avr lag time (h) ([2]; 15 mg/ml, Na, MilliQ (8)) | Kb ([3]; Table 2C, Gaddum equation, single antagonist dose, HEK-293 hGIPR, read-out: nM (Kb)) [nM] | Visual appearance ([1]; 1 mg/ml, TFA, Phosphate (7.4)) | Avr lag time (h) ([2]; 1 mg/ml, TFA, Phosphate (7.4)) | Kb [3] [nM]
1 | CC[C@H](C)[C@H](NC(=O)[C@H](CCCCN)NC(=O)[C@H](CCC(=O)O)NC(=O)[C@H](CC(C)C)NC(=O)C(C)(C)NC(=O)[C@@H](NC(=O)[C@H](CO)NC(=O)[C@H](Cc1ccc(O)cc1)NC(=O)[C@H](CCC(=O)O)NC(=O)[C@H](CO)NC(=O)[C@@H](NC(=O)[C@H](Cc1ccccc1)NC(=O)[C@@H](NC(=O)CNC(=O)[C@@H](N)CCC(=O)O)[C@@H](C)O)[C@@H](C)CC)[C@@H](C)CC)C(=O)N[C@@H](CCCCNC(=O)CC[C@H](NC(=O)CCCCCCCCCCCCCCC(=O)O)C(=O)O)C(=O)N[C@@H](CCC(N)=O)C(=O)N[C@@H](CCC(N)=O)C(=O)N[C@@H](CCC(=O)O)C(=O)N[C@@H](Cc1ccccc1)C(=O)N[C@H](C(=O)N[C@@H](CCC(=O)O)C(=O)N[C@@H](Cc1c[nH]c2ccccc12)C(=O)N[C@@H](CC(C)C)C(=O)N[C@@H](CC(C)C)C(=O)N[C@@H](C)C(=O)N[C@@H](CCC(N)=O)C(=O)N[C@@H](CCCCN)C(=O)N1CCC[C@H]1C(=O)N[C@@H](CO)C(=O)N[C@@H](CO)C(=O)NCC(=O)N[C@@H](C)C(=O)N1CCC[C@H]1C(=O)N1CCC[C@H]1C(=O)N1CCC[C@H]1C(=O)N[C@@H](CO)C(=O)O)C(C)C [AT721] (H-EGTFISEYSI[Aib]LEKIK([γGlu-C16 diacid])QQEFVEWLLAQKPSSGAPPPS-OH; N-terminus assumed) | Clear | Clear | fnd (Fnd = fibrils not detected within experiment time (96 hours) with agitation.) | fnd (Fnd = fibrils not detected within experiment time (96 hours) with agitation.) | 0.31 |  |  | 
2 | CC[C@H](C)[C@H](NC(=O)[C@H](CCCCN)NC(=O)[C@H](CC(=O)O)NC(=O)[C@H](CCSC)NC(=O)[C@H](C)NC(=O)[C@H](CCCCNC(=O)CCCCCCCCCCCCCCC(=O)O)NC(=O)[C@H](CO)NC(=O)[C@H](Cc1ccc(O)cc1)NC(=O)[C@H](CC(=O)O)NC(=O)[C@H](CO)NC(=O)[C@@H](NC(=O)[C@H](Cc1ccccc1)NC(=O)[C@@H](NC(=O)CNC(=O)[C@@H](N)CCC(=O)O)[C@@H](C)O)[C@@H](C)CC)C(=O)N[C@@H](Cc1c[nH]cn1)C(=O)N[C@@H](CCC(N)=O)C(=O)N[C@@H](CCC(N)=O)C(=O)N[C@@H](CC(=O)O)C(=O)N[C@@H](Cc1ccccc1)C(=O)N[C@H](C(=O)N[C@@H](CCC(=O)O)C(=O)N[C@@H](Cc1c[nH]c2ccccc12)C(=O)N[C@@H](CC(C)C)C(=O)N[C@@H](CC(C)C)C(=O)N[C@@H](C)C(=O)N[C@@H](CCC(N)=O)C(=O)N[C@@H](CCCCN)C(=O)N1CCC[C@H]1C(=O)N[C@@H](CO)C(=O)N[C@@H](CO)C(=O)NCC(=O)N[C@@H](C)C(=O)N1CCC[C@H]1C(=O)N1CCC[C@H]1C(=O)N1CCC[C@H]1C(=O)N[C@@H](CO)C(=O)O)C(C)C [AT739] (H-EGTFISDYSK(C16 diacid)AMDKIHQQDFVEWLLAQKPSSGAPPPS-OH; N-terminus assumed) |  |  |  |  |  | Clear | fnd (Fnd = fibrils not detected within experiment time (96 hours) with agitation.) | 11
3 | CC[C@H](C)[C@H](NC(=O)[C@H](CCCCN)NC(=O)[C@H](CC(=O)O)NC(=O)[C@H](CCSC)NC(=O)[C@H](CCCCNC(=O)CCCCCCCCCCCCCCC(=O)O)NC(=O)[C@@H](NC(=O)[C@H](CO)NC(=O)[C@H](Cc1ccc(O)cc1)NC(=O)[C@H](CC(=O)O)NC(=O)[C@H](CO)NC(=O)[C@@H](NC(=O)[C@H](Cc1ccccc1)NC(=O)[C@@H](NC(=O)CNC(=O)[C@@H](N)CCC(=O)O)[C@@H](C)O)[C@@H](C)CC)[C@@H](C)CC)C(=O)N[C@@H](Cc1c[nH]cn1)C(=O)N[C@@H](CCC(N)=O)C(=O)N[C@@H](CCC(N)=O)C(=O)N[C@@H](CC(=O)O)C(=O)N[C@@H](Cc1ccccc1)C(=O)N[C@H](C(=O)N[C@@H](CCC(=O)O)C(=O)N[C@@H](Cc1c[nH]c2ccccc12)C(=O)N[C@@H](CC(C)C)C(=O)N[C@@H](CC(C)C)C(=O)N[C@@H](C)C(=O)N[C@@H](CCC(N)=O)C(=O)N[C@@H](CCCCN)C(=O)N1CCC[C@H]1C(=O)N[C@@H](CO)C(=O)N[C@@H](CO)C(=O)NCC(=O)N[C@@H](C)C(=O)N1CCC[C@H]1C(=O)N1CCC[C@H]1C(=O)N1CCC[C@H]1C(=O)N[C@@H](CO)C(=O)O)C(C)C [AT740] (H-EGTFISDYSIK(C16 diacid)MDKIHQQDFVEWLLAQKPSSGAPPPS-OH; N-terminus assumed) |  |  |  |  |  | Clear | fnd (Fnd = fibrils not detected within experiment time (96 hours) with agitation.) | 14
4 | CC[C@H](C)[C@H](NC(=O)[C@H](CO)NC(=O)[C@H](Cc1ccc(O)cc1)NC(=O)[C@H](CC(=O)O)NC(=O)[C@H](CO)NC(=O)[C@@H](NC(=O)[C@H](Cc1ccccc1)NC(=O)[C@@H](NC(=O)CNC(=O)[C@@H](N)CCC(=O)O)[C@@H](C)O)[C@@H](C)CC)C(=O)N[C@@H](C)C(=O)N[C@@H](CCSC)C(=O)N[C@@H](CC(=O)O)C(=O)N[C@@H](CCCCNC(=O)CCCCCCCCCCCCCCC(=O)O)C(=O)N[C@H](C(=O)N[C@@H](Cc1c[nH]cn1)C(=O)N[C@@H](CCC(N)=O)C(=O)N[C@@H](CCC(N)=O)C(=O)N[C@@H](CC(=O)O)C(=O)N[C@@H](Cc1ccccc1)C(=O)N[C@H](C(=O)N[C@@H](CCC(=O)O)C(=O)N[C@@H](Cc1c[nH]c2ccccc12)C(=O)N[C@@H](CC(C)C)C(=O)N[C@@H](CC(C)C)C(=O)N[C@@H](C)C(=O)N[C@@H](CCC(N)=O)C(=O)N[C@@H](CCCCN)C(=O)N1CCC[C@H]1C(=O)N[C@@H](CO)C(=O)N[C@@H](CO)C(=O)NCC(=O)N[C@@H](C)C(=O)N1CCC[C@H]1C(=O)N1CCC[C@H]1C(=O)N1CCC[C@H]1C(=O)N[C@@H](CO)C(=O)O)C(C)C)[C@@H](C)CC [AT741] (H-EGTFISDYSIAMDK(C16 diacid)IHQQDFVEWLLAQKPSSGAPPPS-OH; N-terminus assumed) |  |  |  |  |  | Clear | fnd (Fnd = fibrils not detected within experiment time (96 hours) with agitation.) | 11
